Patent publication US8772304B2, “Benzimidazole inhibitors of leukotriene production” (Boehringer Ingelheim International GmbH, priority 2010, dated 2014)
Blank lines part the entries; values can stand above or below the molecule they belong to.

Key:
[1] = test system: biomarkers for myocardial infarction risk; settings: clinical trial; cited from earlier work
[2] = test system: proteinuria; settings: clinical trial, human glomerulonephritis; cited from earlier work
[3] = test system: atherosclerotic plaque; settings: oral dosing, apoE/LDL-R double knockout mice, high-fat diet from 2 to 6 months of age; cited from earlier work
[4] = test system: atherosclerotic plaque; settings: infusion, ApoE−/−xCD4dnTβRII mice, treated for four weeks; cited from earlier work
[5] = molecular target: recombinant human FLAP protein (Homo sapiens (Human), UniProt P20292); experiment: FLAP binding assay (Scintillation Proximity Assay, displacement of iodinated FLAP inhibitor); settings: displacement of [125I]L-691,831; membranes of sf9 cells expressing recombinant human FLAP; read-out: hFLAP binding IC50
Method: Compounds are assessed for the ability to bind to FLAP in a binding assay that measures compound-specific displacement of an iodinated (^125I) FLAP inhibitor via a Scintillation Proximity Assay format (adapted from S. Charleson et al., Mol. Pharmacol., 1992, 41, 873-879).
Cell pellets produced from sf9 insect cells expressing recombinant human FLAP protein are resuspended in buffer A [15 mM Tris-HCl (pH 7.5), 2 mM MgCl2, 0.3 mM EDTA, 1 mM PMSF]. The cells are lysed with a Dounce homogenizer and the material is centrifuged at 10,000×g for 10 minutes. The supernatant is then collected and centrifuged at 100,000×g for 60 minutes. To prepare membrane protein for an assay, an aliquot of the 100,000×g pellet is resuspended in 1 ml of buffer A, Dounce homogenized, and finally subjected to polytron mixing (30 seconds). Membrane protein (25 μl, 5 μg) is mixed with WGA SPA beads (Amersham) and stirred for 1 h. […] (final concentrations: beads, 200 μg/well; protein, 5 μg/well; [^125I] probe, 0 08 nM/well (17 nCi/well). The plates are shaken for 2 h before reading on a Microbeta plate reader. Non-specific binding is determined by the addition of 10 μM cold L-691,831 compound.

[6] = test system: synthesis of LTB4 in human whole blood; experiment: human whole blood LTB4 production inhibition assay; type: cell-based; settings: heparinized human whole blood, calcimycin 20 μM stimulation, plasma LTB4; read-out: hWB IC50
Method: Compounds are additionally tested in a human whole blood assay to determine their ability to inhibit the synthesis of LTB4 in a cellular system. Compounds are combined with heparinized human whole blood and incubated for 15 minutes at 37° C. Calcimycin (20 μM final, prepared in phosphate-buffered saline, pH 7.4) is then added and the mixture is incubated for another 30 minutes at 37° C. The samples are centrifuged for 5 min at low speed (1500×g) and the plasma layer is removed. Plasma LTB4 concentrations are then measured using an antibody-based homogenous time-resolved fluorescence method (CisBio, Bedford, Mass.).

Sequence of recombinant human FLAP protein (P20292 whole entry): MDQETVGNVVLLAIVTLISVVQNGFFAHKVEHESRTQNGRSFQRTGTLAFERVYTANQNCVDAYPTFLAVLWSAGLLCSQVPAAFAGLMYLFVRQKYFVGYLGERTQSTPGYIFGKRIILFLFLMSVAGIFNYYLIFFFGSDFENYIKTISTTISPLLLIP

SMILES: O=C(O)[C@@H](c1ccc(OCc2ccc3ccccc3n2)cc1)C1CCCC1 [DG-031]
effect on biomarkers for myocardial infarction risk [1]: dose-dependent suppression of several biomarkers

SMILES: CC(C)(C)Sc1c(CC(C)(C)C(=O)O)n(Cc2ccc(Cl)cc2)c2ccc(OCc3ccc4ccccc4n3)cc12 [MK-591]
effect on proteinuria [2]: reduce proteinuria

SMILES: CC(C)c1ccc2c(c1)c(SC(C)(C)C)c(CC(C)(C)C(=O)O)n2Cc1ccc(Cl)cc1 [MK-886]
decrease in plaque coverage in the aorta [3]: 56%
decrease in plaque coverage in the aortic root [3]: 43%
decrease in plaque area in the aortic root [4]: ~40%

IC50 [5]: 540 nM
IC50 [6]: 3100 nM
SMILES: COC(=O)c1cccnc1-c1nc2cc(-c3cnc(N)nc3)ccc2n1C(C)(C)C [Example 7, 2-[5-(2-Amino-pyrimidin-5-yl)-1-tert-butyl-1H-benzimidazol-2-yl]-nicotinic acid methyl esler]

IC50 [5]: 20 nM
IC50 [6]: 253 nM
SMILES: CC(C)(C)n1c(-c2cc(F)cnc2-n2cncn2)nc2cc(-c3cnc(N)nc3)ccc21 [Example 21, 5-[1-tert-Butyl-2-(5-fluoro-2-1,2,4-triazol-1-yl-pyridin-3-yl)-1H-benzimidazol-5-yl]-pyrimidin-2-ylamine]
